The target in test [1] is T1, purified wild type MGL (wt-MGLL 6H-11-313) (Homo sapiens, UniProt Q99685).
T1 construct: purified wild type MGL (wt-MGLL 6H-11-313)
T1 sequence (Q99685 1-303): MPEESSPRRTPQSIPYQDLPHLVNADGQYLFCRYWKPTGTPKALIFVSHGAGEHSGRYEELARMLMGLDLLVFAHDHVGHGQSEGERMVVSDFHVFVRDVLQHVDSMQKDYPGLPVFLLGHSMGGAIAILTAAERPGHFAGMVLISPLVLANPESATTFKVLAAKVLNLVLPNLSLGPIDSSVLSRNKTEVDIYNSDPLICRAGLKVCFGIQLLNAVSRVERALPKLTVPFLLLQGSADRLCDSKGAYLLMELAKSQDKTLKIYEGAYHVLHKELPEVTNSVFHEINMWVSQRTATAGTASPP
The test can be described thus: MGL enzyme activity assay (4MU-B cleavage), wild type MGL. Format: biochemical. The following applies: wild type MGL 5 nM, 4MU-B 10 μM, 37° C.; read-out: MGL wild type inh IC50. In short, it runs like this: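 Enzyme in 20 mM PIPES pH 7.0, 150 mM NaCl, 0.001% Tween 20 with 4MU-B at 10 μM final and MGL at 5 nM final; compounds 17 to 0.0003 μM final, enzyme added last. Fluorescence (ex 335/em 440 nm) followed at 37° C for 5 min; IC50 from fit of fractional activity versus inhibitor concentration.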

Test [2] has as its system MGL (rat brain homogenate). Briefly: 2-AG accumulation assay in rat brain homogenate. Type of test: biochemical. The following applies: compound 1 μM, percent of vehicle 2-AG accumulation. On the procedure:
After a 15-min incubation time at 37° C., CaCl2 (final concentration=10 mM) was added and then incubated for 15 min at 37° C. in a total volume of 5 mL. The reactions were stopped with 6 mL organic solvent extraction solution of 2:1 chloroform/methanol. Accumulated 2-AG in the organic phase was measured by a HPLC/MS method, according to the following equation: percent vehicle=(2-AG accumulation in the presence of compound/2-AG accumulation in vehicle)×100.

The text below walks through data of US8748417B2, “Amino-pyrrolidine-azetidine diamides as monoacylglycerol lipase inhibitors” (Janssen Pharmaceutica, NV, priority 2010, dated 2014).

The term IC50 denotes the concentration that inhibits the measured activity by half.

As for `O=C(c1nccs1)N1CC[C@H](NC2CN(C(=O)c3sc4cc(-c5ccc(C(F)(F)F)cc5)ccc4c3Cl)C2)C1` [Cpd 150, (3S)-N-[1-({3-Chloro-6-[4-(trifluoromethyl)phenyl]-1-benzothiophen-2-yl}carbonyl)azetidin-3-yl]-1-(1,3-thiazol-2-ylcarbonyl)pyrrolidin-3-amine], the IC50 in test [1] is less than 5 nM. Also, in test [2], the “Rat Brain 2AG % VehCntrl (%) @1 μM” value is 759%.

On to `O=C(c1cscn1)N1CC[C@H](NC2CN(C(=O)c3sc4cc(-c5ccc(C(F)(F)F)cc5)ccc4c3Cl)C2)C1` [Cpd 151, (3S)-N-[1-({3-Chloro-6-[4-(trifluoromethyl)phenyl]-1-benzothiophen-2-yl}carbonyl)azetidin-3-yl]-1-(1,3-thiazol-4-ylcarbonyl)pyrrolidin-3-amine], for which the IC50 in test [1] is less than 5 nM. The “Rat Brain 2AG % VehCntrl (%) @1 μM” value in test [2] stood at 495%.

As for `O=C(c1ccccc1)N1CC[C@H](NC2CN(C(=O)c3ccc(-c4cccc(C(F)(F)F)c4)cc3F)C2)C1` [Cpd 152, (3S)-N-(1-{[3-Fluoro-3′-(trifluoromethyl)biphenyl-4-yl]carbonyl}azetidin-3-yl)-1-(phenylcarbonyl)pyrrolidin-3-amine], in test [1], the IC50 turned out to be 35.2 nM. Besides, the “Rat Brain 2AG % VehCntrl (%) @1 μM” value in test [2] stood at 404%.

Regarding `O=C(c1ccc2c(ccn2-c2ccc(C(F)(F)F)cc2)c1)N1CC(N[C@H]2CCN(C(=O)c3ccccc3)C2)C1` [Cpd 154, (3S)-1-(Phenylcarbonyl)-N-[1-({1-[4-(trifluoromethyl)phenyl]-1H-indol-5-yl}carbonyl)azetidin-3-yl]pyrrolidin-3-amine], the IC50 in test [1] is 13.4 nM. Moreover, the “Rat Brain 2AG % VehCntrl (%) @1 μM” value in test [2] stood at 582%.

For `O=C(c1ccc2c(ccn2-c2ccc(C(F)(F)F)cc2)c1)N1CC(N[C@H]2CCN(C(=O)c3cscn3)C2)C1` [Cpd 158, (3S)-1-(1,3-Thiazol-4-ylcarbonyl)-N-[1-({1-[4-(trifluoromethyl)phenyl]-1H-indol-5-yl}carbonyl)azetidin-3-yl]pyrrolidin-3-amine], the IC50 in test [1] came out at 16 nM. Further, in test [2], the “Rat Brain 2AG % VehCntrl (%) @1 μM” value is given as 415%.

Regarding `O=C(c1ccc2c(ccn2-c2ccc(F)cc2)c1)N1CC(N[C@H]2CCN(C(=O)c3cscn3)C2)C1` [Cpd 160, (3S)-N-(1-{[1-(4-Fluorophenyl)-1H-indol-5-yl]carbonyl}azetidin-3-yl)-1-(1,3-thiazol-4-ylcarbonyl)pyrrolidin-3-amine], the IC50 in test [1] came out at 12.4 nM. Also, the “Rat Brain 2AG % VehCntrl (%) @1 μM” value in test [2] was 338%.

Take `O=C(c1ccc2c(ccn2-c2ccc(F)cc2)c1)N1CC(N[C@H]2CCN(C(=O)c3ccccc3)C2)C1` [Cpd 161, (3S)-N-(1-{[1-(4-Fluorophenyl)-1H-indol-5-yl]carbonyl}azetidin-3-yl)-1-(phenylcarbonyl)pyrrolidin-3-amine]: in test [1], the IC50 is 55 nM. Further, the “Rat Brain 2AG % VehCntrl (%) @1 μM” value in test [2] amounted to 485%.

Consider `Cn1cc(-c2ccc(C(F)(F)F)cc2)c2ccc(C(=O)N3CC(N[C@H]4CCN(C(=O)c5nccs5)C4)C3)cc21` [Cpd 163, (3S)-N-[1-({1-Methyl-3-[4-(trifluoromethyl)phenyl]-1H-indol-6-yl}carbonyl)azetidin-3-yl]-1-(1,3-thiazol-2-ylcarbonyl)pyrrolidin-3-amine], for which, in test [1], the IC50 was found to be 10.7 nM. The “Rat Brain 2AG % VehCntrl (%) @1 μM” value in test [2] is given as 274%.

Consider `Cn1cc(-c2cccc(C(F)(F)F)c2)c2ccc(C(=O)N3CC(N[C@H]4CCN(C(=O)c5cscn5)C4)C3)cc21` [Cpd 164, (3S)-N-[1-({1-Methyl-3-[3-(trifluoromethyl)phenyl]-1H-indol-6-yl}carbonyl)azetidin-3-yl]-1-(1,3-thiazol-4-ylcarbonyl)pyrrolidin-3-amine], for which, in test [1], the IC50 is 25.1 nM. Moreover, the “Rat Brain 2AG % VehCntrl (%) @1 μM” value in test [2] is listed as 458%.

Regarding `Cn1cc(-c2ccc(C(F)(F)F)cc2)c2ccc(C(=O)N3CC(N[C@H]4CCN(C(=O)c5cscn5)C4)C3)cc21` [Cpd 165, (3S)-N-[1-({1-Methyl-3-[4-(trifluoromethyl)phenyl]-1H-indol-6-yl}carbonyl)azetidin-3-yl]-1-(1,3-thiazol-4-ylcarbonyl)pyrrolidin-3-amine], in test [1], the IC50 is 44.5 nM. For the same compound, the “Rat Brain 2AG % VehCntrl (%) @1 μM” value in test [2] worked out at 228%.

Consider `Cn1cc(-c2cccc(C(F)(F)F)c2)c2ccc(C(=O)N3CC(N[C@H]4CCN(C(=O)c5ccccc5)C4)C3)cc21` [Cpd 166, (3S)-N-[1-({1-Methyl-3-[3-(trifluoromethyl)phenyl]-1H-indol-6-yl}carbonyl)azetidin-3-yl]-1-(phenylcarbonyl)pyrrolidin-3-amine], for which the IC50 in test [1] was 49.8 nM. In test [2], the “Rat Brain 2AG % VehCntrl (%) @1 μM” value amounted to 322%.

Consider `O=C(c1nccs1)N1CC[C@H](NC2CN(C(=O)c3sc4cc(C(F)(F)F)ccc4c3Cl)C2)C1` [Cpd 167, (3S)-N-(1-{[3-Chloro-6-(trifluoromethyl)-1-benzothiophen-2-yl]carbonyl}azetidin-3-yl)-1-(1,3-thiazol-2-ylcarbonyl)pyrrolidin-3-amine], for which, in test [1], the IC50 was found to be 11 nM. In test [2], the “Rat Brain 2AG % VehCntrl (%) @1 μM” value came to 695%.

For `O=C(c1cscn1)N1CC[C@H](NC2CN(C(=O)c3sc4cc(C(F)(F)F)ccc4c3Cl)C2)C1` [Cpd 168, (3S)-N-(1-{[3-Chloro-6-(trifluoromethyl)-1-benzothiophen-2-yl]carbonyl}azetidin-3-yl)-1-(1,3-thiazol-4-ylcarbonyl)pyrrolidin-3-amine], in test [1], the IC50 stood at 32.2 nM. For the same compound, the “Rat Brain 2AG % VehCntrl (%) @1 μM” value in test [2] turned out to be 611%.

In the case of `Cn1cc(-c2ccccc2)c2ccc(C(=O)N3CC(N[C@H]4CCN(C(=O)c5nccs5)C4)C3)cc21` [Cpd 169, (3S)-N-{1-[(1-Methyl-3-phenyl-1H-indol-6-yl)carbonyl]azetidin-3-yl}-1-(1,3-thiazol-2-ylcarbonyl)pyrrolidin-3-amine], the IC50 in test [1] came to 13.9 nM. For the same compound, the “Rat Brain 2AG % VehCntrl (%) @1 μM” value in test [2] amounted to 482%.

Take `O=C(c1nccs1)N1CC[C@H](NC2CN(C(=O)c3sc4ccc(-c5ccccc5)cc4c3F)C2)C1` [Cpd 171, (3S)-N-{1-[(3-Fluoro-5-phenyl-1-benzothiophen-2-yl)carbonyl]azetidin-3-yl}-1-(1,3-thiazol-2-ylcarbonyl)pyrrolidin-3-amine]: the 50% inhibitory concentration (IC50) in test [1] was less than 5 nM. Further, in test [2], the “Rat Brain 2AG % VehCntrl (%) @1 μM” value is listed as 614%.

In the case of `O=C(c1cscn1)N1CC[C@H](NC2CN(C(=O)c3sc4ccc(-c5ccccc5)cc4c3F)C2)C1` [Cpd 172, (3S)-N-{1-[(3-Fluoro-5-phenyl-1-benzothiophen-2-yl)carbonyl]azetidin-3-yl}-1-(1,3-thiazol-4-ylcarbonyl)pyrrolidin-3-amine], the IC50 in test [1] was less than 5 nM. Besides, the “Rat Brain 2AG % VehCntrl (%) @1 μM” value in test [2] was 532%.

As to `O=C(c1ccccc1)N1CC[C@H](NC2CN(C(=O)c3sc4ccc(-c5ccccc5)cc4c3F)C2)C1` [Cpd 173, (3S)-N-{1-[(3-Fluoro-5-phenyl-1-benzothiophen-2-yl)carbonyl]azetidin-3-yl}-1-(phenylcarbonyl)pyrrolidin-3-amine], in test [1], the IC50 was less than 5 nM. In test [2], the “Rat Brain 2AG % VehCntrl (%) @1 μM” value was determined as 628%.

In the case of `O=C(c1nccs1)N1CC[C@H](NC2CN(C(=O)c3sc4ccc(-c5ccc(C(F)(F)F)cc5)cc4c3F)C2)C1` [Cpd 174, (3S)-N-[1-({3-Fluoro-5-[4-(trifluoromethyl)phenyl]-1-benzothiophen-2-yl}carbonyl)azetidin-3-yl]-1-(1,3-thiazol-2-ylcarbonyl)pyrrolidin-3-amine], the half-inhibitory concentration (IC50) in test [1] is 10 nM. In test [2], the “Rat Brain 2AG % VehCntrl (%) @1 μM” value was found to be 791%.

Regarding `O=C(c1cscn1)N1CC[C@H](NC2CN(C(=O)c3sc4ccc(-c5ccc(C(F)(F)F)cc5)cc4c3F)C2)C1` [Cpd 175, (3S)-N-[1-({3-Fluoro-5-[4-(trifluoromethyl)phenyl]-1-benzothiophen-2-yl}carbonyl)azetidin-3-yl]-1-(1,3-thiazol-4-ylcarbonyl)pyrrolidin-3-amine], in test [1], the IC50 is less than 5 nM. Besides, the “Rat Brain 2AG % VehCntrl (%) @1 μM” value in test [2] turned out to be 734%.

For `O=C(c1ccccc1)N1CC[C@H](NC2CN(C(=O)c3sc4ccc(-c5ccc(C(F)(F)F)cc5)cc4c3F)C2)C1` [Cpd 176, (3S)-N-[1-({3-Fluoro-5-[4-(trifluoromethyl)phenyl]-1-benzothiophen-2-yl}carbonyl)azetidin-3-yl]-1-(phenylcarbonyl)pyrrolidin-3-amine], the IC50 in test [1] was determined as 6 nM. The “Rat Brain 2AG % VehCntrl (%) @1 μM” value in test [2] is reported as 832%.

Turning to `O=C(c1nccs1)N1CC[C@H](NC2CN(C(=O)c3sc4cc(-c5ccc(C(F)(F)F)cc5)ccc4c3F)C2)C1` [Cpd 177, (3S)-N-[1-({3-Fluoro-6-[4-(trifluoromethyl)phenyl]-1-benzothiophen-2-yl}carbonyl)azetidin-3-yl]-1-(1,3-thiazol-2-ylcarbonyl)pyrrolidin-3-amine], the IC50 in test [1] was 16 nM. For the same compound, the “Rat Brain 2AG % VehCntrl (%) @1 μM” value in test [2] worked out at 766%.

For the compound `O=C(c1cscn1)N1CC[C@H](NC2CN(C(=O)c3sc4cc(-c5ccc(C(F)(F)F)cc5)ccc4c3F)C2)C1` [Cpd 178, (3S)-N-[1-({3-Fluoro-6-[4-(trifluoromethyl)phenyl]-1-benzothiophen-2-yl}carbonyl)azetidin-3-yl]-1-(1,3-thiazol-4-ylcarbonyl)pyrrolidin-3-amine], in test [1], the IC50 was less than 5 nM. Also, the “Rat Brain 2AG % VehCntrl (%) @1 μM” value in test [2] was 297%.
